Assay results from patent US7919513B2, “Inhibitors of p38” (Vertex Pharmaceuticals Incorporated, priority 2000, dated 2011).
pIC50: −log10 of the molar value.

Tests used:
[1] = system: TNF production in whole blood; assay: Inhibition of TNF production in LPS-stimulated whole blood ("WB"); type: cell-based; details: Homo sapiens, 4 ng/ml LPS, overnight, ELISA TNF-α
Description: (§1) C. Inhibition of IL-1, TNF, IL-6 and IL-8 Production in LPS-Stimulated PBMCs
(§2) Inhibitors were serially diluted in DMSO from a 20 mM stock. At least 6 serial dilutions were prepared. Then 4× inhibitor stocks were prepared by adding 4 μl of an inhibitor dilution to 1 ml of RPMI1640 medium/10% fetal bovine serum. The 4× inhibitor stocks contained inhibitor at concentrations of 80 μM, 32 μM, 12.8 μM, 5.12 μM, 2.048 μM, 0.819 μM, 0.328 μM, 0.131 μM, 0.052 μM, 0.021 μM etc. The 4× inhibitor stocks were pre-warmed at 37° C. until use.
(§3) Alternatively, whole blood containing an anti-coagulant was used directly in the assay.
(§4) 100 μl of cell suspension or whole blood were placed in each well of a 96-well cell culture plate. Then 50 μl of the 4× inhibitor stock was added to the cells. Finally, 50 μl of a lipopolysaccharide (LPS) working stock solution (16 ng/ml in cell culture medium) was added to give a final concentration of 4 ng/ml LPS in the assay. […]
(§5) The next day the cells were mixed on a shaker for 3-5 minutes before centrifugation at 500×g for 5 minutes. Cell culture supernatants were harvested and analyzed by ELISA for levels of IL-1β (R & D Systems, Quantikine kits, #DBL50), TNF-α (BioSource, #KHC3012), IL-6 (Endogen, #EH2-IL6) and IL-8 (Endogen, #EH2-IL8) according to the instructions of the manufacturer. […]

[2] = system: IL-6 production in whole blood; assay: Inhibition of IL-6 production in LPS-stimulated whole blood ("WB"); type: cell-based; details: Homo sapiens, 4 ng/ml LPS, overnight, ELISA IL-6
Description: as §1, §2, §3, §4, §5

[3] = system: IL-1 production in LPS-stimulated PBMCs; assay: Inhibition of IL-1 production in LPS-stimulated PBMCs ("cell"); type: cell-based; details: Homo sapiens, PBMC, 4 ng/ml LPS, overnight, ELISA IL-1β
Description: as §1, §2
(§6) Fresh human blood buffy cells were separated from other cells in a Vacutainer CPT from Becton & Dickinson (containing 4 ml blood and enough DPBS without Mg^2+/Ca^2+ to fill the tube) by centrifugation at 1500×g for 15 min. […] The total cell number was determined using a Neubauer Cell Chamber and the cells were adjusted to a concentration of 4.8×10^6 cells/ml in cell culture medium (RPMI1640 supplemented with 10% fetal bovine serum). […]
as §5

activated p38 = activated p38 (Homo sapiens, UniProt Q16539); assay: Kinase assay: inhibition of phosphorylation of EGF receptor peptide; type: biochemical; details: activated p38 5 nM, EGF receptor peptide 200 μM, ATP 100 μM, 30° C, HPLC
Description: A. Inhibition of Phosphorylation of EGF Receptor Peptide
This assay was carried out in the presence of 10 mM MgCl2, 25 mM β-glycerophosphate, 10% glycerol and 100 mM HEPES buffer at pH 7.6. For a typical IC50 determination, a stock solution was prepared containing all of the above components and activated p38 (5 nM). The stock solution was aliquotted into vials. A fixed volume of DMSO or inhibitor in DMSO (final concentration of DMSO in reaction was 5%) was introduced to each vial, mixed and incubated for 15 minutes at room temperature. EGF receptor peptide, […] (SEQ ID NO: 3), a phosphoryl acceptor in p38-catalyzed kinase reaction (1), was added to each vial to a final concentration of 200 μM. The kinase reaction was initiated with ATP (100 μM) and the vials were incubated at 30° C. After 30 minutes, the reactions were quenched with equal volume of 10% trifluoroacetic acid (TFA).
The phosphorylated peptide was quantified by HPLC analysis. Separation of phosphorylated peptide from the unphosphorylated peptide was achieved on a reverse phase column (Deltapak, 5 μm, C18 100D, Part no. 011795) with a binary gradient of water and acteonitrile, each containing 0.1% TFA. IC50 (concentration of inhibitor yielding 50% inhibition) was determined by plotting the percent (%) activity remaining against inhibitor concentration.

[4] = system: IL-1 production in whole blood; assay: Inhibition of IL-1 production in LPS-stimulated whole blood ("WB"); type: cell-based; details: Homo sapiens, 4 ng/ml LPS, overnight, ELISA IL-1β
Description: as §1, §2, §3, §4, §5

[5] = system: TNF production in LPS-stimulated PBMCs; assay: Inhibition of TNF production in LPS-stimulated PBMCs ("cell"); type: cell-based; details: Homo sapiens, PBMC, 4 ng/ml LPS, overnight, ELISA TNF-α
Description: as §1, §2, §6, §5

Sequence of activated p38 (Q16539 whole entry): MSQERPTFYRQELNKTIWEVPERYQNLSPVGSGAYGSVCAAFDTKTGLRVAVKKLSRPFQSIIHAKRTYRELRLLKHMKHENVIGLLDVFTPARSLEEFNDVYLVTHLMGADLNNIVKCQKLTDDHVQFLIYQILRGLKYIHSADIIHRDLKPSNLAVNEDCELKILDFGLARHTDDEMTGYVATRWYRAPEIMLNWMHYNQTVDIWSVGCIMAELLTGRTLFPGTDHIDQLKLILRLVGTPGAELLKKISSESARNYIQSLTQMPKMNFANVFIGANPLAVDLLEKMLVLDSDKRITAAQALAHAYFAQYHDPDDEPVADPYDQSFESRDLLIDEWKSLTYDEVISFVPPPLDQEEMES

Row | pIC50 [1] | pIC50 [2] | pIC50 (activated p38) | pIC50 [4] | Structure (SMILES) | pIC50 [3] | pIC50 [5]
1 | 4.70 | 4.96 | 6.00 | 4.91 | CN(C)/C=N/C(=O)OCc1ccc(N(C(N)=O)c2c(F)cccc2F)nc1-c1ccc(F)cc1F [Compound 9] | 7.30 | 7.30
2 | 5.37 | 6.10 | 5.30 | 5.66 | CN(C)/C=N/C(=O)OCc1ccc(N(C(=O)/N=C/N(C)C)c2c(F)cccc2F)nc1-c1ccc(F)cc1F [Compound 10] | – | –
